Reference: the NIST ThermoML archive (doi:10.1016/j.jct.2018.09.026)
Numbers after ± are expanded uncertainties.

Assay: mn = molality of the nth substance listed, in mol/kg
Conditions: 100 kPa, Liquid; for speed of sound: Frequency=3 MHz, Single path-length method; for mass density: Vibrating tube method

For `CNCCC=C1c2ccccc2CCc2ccccc21.Cl` + O, the speed of sound (288.15 K, m1 = 0.025) was 1471.8 ± 1.5 m/s, the speed of sound (288.15 K, m1 = 0.05) was 1475.9 ± 1.5 m/s and the speed of sound (288.15 K, m1 = 0.075) was 1478.3 ± 1.5 m/s. It also gave a mass density (288.15 K, m1 = 0.025) of 1000.19 ± 0.38 kg/m3, a mass density (288.15 K, m1 = 0.05) of 1001.25 ± 0.39 kg/m3 and a mass density (288.15 K, m1 = 0.075) of 1002.26 ± 0.39 kg/m3. The speed of sound (293.15 K, m1 = 0.025) was 1487.4 ± 1.5 m/s, the speed of sound (293.15 K, m1 = 0.05) was 1491.2 ± 1.5 m/s and the speed of sound (293.15 K, m1 = 0.075) was 1493.7 ± 1.5 m/s. For the same compound, the mass density (293.15 K, m1 = 0.025) was 999.27 ± 0.38 kg/m3, the mass density (293.15 K, m1 = 0.05) was 1000.3 ± 0.38 kg/m3 and the mass density (293.15 K, m1 = 0.075) was 1001.3 ± 0.39 kg/m3. For the same compound, the speed of sound (298.15 K, m1 = 0.025) was 1501.2 ± 1.5 m/s, the speed of sound (298.15 K, m1 = 0.05) was 1504.8 ± 1.5 m/s and the speed of sound (298.15 K, m1 = 0.075) was 1507.2 ± 1.5 m/s. The mass density (298.15 K, m1 = 0.025) was 998.086 ± 0.38 kg/m3, the mass density (298.15 K, m1 = 0.05) was 999.096 ± 0.38 kg/m3 and the mass density (298.15 K, m1 = 0.075) was 1000.07 ± 0.39 kg/m3. It also gave a speed of sound (303.15 K, m1 = 0.025) of 1513.2 ± 1.5 m/s, a speed of sound (303.15 K, m1 = 0.05) of 1516.7 ± 1.5 m/s and a speed of sound (303.15 K, m1 = 0.075) of 1519 ± 1.5 m/s. It also gave a mass density (303.15 K, m1 = 0.025) of 996.667 ± 0.38 kg/m3, a mass density (303.15 K, m1 = 0.05) of 997.655 ± 0.38 kg/m3 and a mass density (303.15 K, m1 = 0.075) of 998.612 ± 0.39 kg/m3. For the same compound, the speed of sound (308.15 K, m1 = 0.025) was 1523.6 ± 1.5 m/s, the speed of sound (308.15 K, m1 = 0.05) was 1526.8 ± 1.5 m/s and the speed of sound (308.15 K, m1 = 0.075) was 1529.1 ± 1.5 m/s. For the same compound, the mass density (308.15 K, m1 = 0.025) was 995.032 ± 0.38 kg/m3, the mass density (308.15 K, m1 = 0.05) was 995.999 ± 0.38 kg/m3 and the mass density (308.15 K, m1 = 0.075) was 996.941 ± 0.39 kg/m3.
